Reference: patent publication US20070213370A1, “5-HTP Combination Therapy” (H. Lundbeck A/S, priority 2005, published 2007)
Like-named read-outs stand apart in the source and are kept apart here.

Assays:
[1] = cited from earlier work
[2] = Mouse plasma levels of 5-HTP; assay type: in vivo; details: mouse forced swim test with escitalopram versus human clinical efficacy
Experimental: For this indication, typical doses of 100-200 mg of 5-HTP result in plasma levels of 50-100 ng/ml (Gijsman, H. J., et al., J Clin Psychopharmacol. 2002 April, 22(2):183-9).

[3] = test system: BALB/cByJ mice; test: Mouse marble burying behavior; assay type: in vivo
From the text: Male BALB/cByJ mice (Jackson labs, Bar Harbor, Me.) were housed 5/cage upon arrival, at which time they were 7-8 weeks of age. Animals acclimated to the housing facility under standard laboratory conditions for a period of at least one week before testing (lights on at 6:00 AM). […] Fifteen minutes after the second injection, animals were individually placed into novel cages in which a layer of Aspen Pine bedding on which two parallel rows of 10 marbles each (i.e. twenty total) were placed. After 30 minutes had elapsed, the mice were removed from their test cages and returned to their home cages. The number of fully visible marbles (less than ⅔ covered with bedding) were counted and subtracted from 20 to arrive at the number of marbles buried.

[4] = test system: NMRI/BOM mice; test: Mouse forced swim test; assay type: in vivo; details: for ED50: SRI alone, mouse forced swim test; for ED50, SRI + 5-HTP (25 mg/kg): SRI in combination with 5-HTP 25 mg/kg SC
From the text: Male NMRI/BOM mice (18-25 g; Bomholtgaard, Denmark) were used. The mice were housed in plastic cages (35×30×12 cm), 10 in each and habituated to the animal facilities for at least a week before test. […] The animals had free access to commercial food pellets and tap water before test.
A mouse that is forced to swim in a spatially constrained container will exert a characteristic immobile posture. Pretreatment with an antidepressant will counteract this effect. […] Briefly, a fully automated test system with 6 swim units (2000 ml glass jars filled with 1200 ml soiled water (23-25° C.) in which a mouse had been placed previously) was used. The assessment of immobility was performed by image analysis.
Thirty minutes after drug or vehicle treatment the mice were treated with 5-HTP and 20 min later the mice were placed into the glass jar and left in the water for a total of 6 min. The accumulated duration of immobility was measured during the last 3 min. A total of 9-18 mice were tested per dose.

[5] = typical doses of 100-200 mg 5-HTP; cited from earlier work
[6] = test system: extra-cellular 5-HT in frontal cortex; test: Rat microdialysis, extracellular 5-HT in frontal cortex of freely moving rats; assay type: in vivo; details: escitalopram 0.5 mg/kg s.c. versus fluoxetine 10 mg/kg s.c.; 5-HTP 25 mg/kg s.c. 60 min later
Experimental: FIG. 1. […] Microdialysis in freely moving rats was performed as described in detail by Mark, […]. and Sanchez, C. […] Briefly, male Sprague-Dawley rats were prepared for microdialysis by surgically implanting intracerebral guide cannulas. A microdialysis probe was inserted through the guide cannula. Perfusion of the microdialysis probe with filtered Ringer solution (146 mM NaCl, 3 mM KCl, 1 mM MgCl2, 1.2 mM CaCl2) was done before the insertion of the probe and continued for the duration of the experiments at a constant flow of 1 μl/minute into the frontal cortex.

[7] = test system: rat; details: cited from earlier work
[8] = test system: mouse; details: co-administration with L; cited from earlier work
[9] = in combination with escitalopram at a dose corresponding to a clinically effective concentration

NC(Cc1c[nH]c2ccc(O)cc12)C(=O)O (centres unmarked) [5-HTP, 2-amino-3-(5-hydroxy-1H-indol-3-yl)-propanoic acid]
mouse plasma level ([1]; 5-HTP 25 mg/kg): 17 ng/mL | mouse plasma level ([1]; 5-HTP 50 mg/kg): 41 ng/mL | factor by which potentiating plasma levels in mouse are lower than those required for clinical efficacy in humans [2]: at least 3 times | marble burying, 5-HTP alone ([3]; 5-HTP 2.5 mg/kg): no behavioral effect | potentiation of the response to escitalopram ([4]; 5-HTP 10, 15 and 50 mg/kg co-administered with escitalopram 0.5 mg/kg): significantly potentiates | effect of 5-HTP alone ([4]; 5-HTP 25 and 50 mg/kg without SRI): not by themselves effective | 5-HTP dose at which maximum potentiation effect was achieved [4, 9]: 50 mg/kg | minimal effective dose of 5-HTP [4, 9]: 10 mg/kg | plasma levels in humans [5]: 50 to 100 ng/mL

CN(C)CCC[C@@]1(c2ccc(F)cc2)OCc2cc(C#N)ccc21 [Escitalopram, S-(+)-1-[3-(dimethylamino)propyl]-1-(p-fluorophenyl)-5-phthalancarbonitrileoxalate]
5-HTP potentiation effect measured as increase of extra-cellular 5-HT in the frontal cortex [6]: dramatically higher | anxiolytic response to co-treatment with L, 5-HTP [7]: markedly enhanced | marble burying, escitalopram without 5-HTP ([3]; 0.25 mg/kg IP): inactive | marble burying, escitalopram with 5-HTP ([3]; escitalopram 0.0625-0.25 mg/kg plus 5-HTP 2.5 mg/kg): significant reduction in marble burying | ED50 [4]: 12 mg/kg | ED50, SRI + 5-HTP (25 mg/kg) [4]: 0.42 mg/kg

CNCCC(Oc1ccc(C(F)(F)F)cc1)c1ccccc1 (centres unmarked) [Fluoxetine]
ED50 [4]: > 8.9 mg/kg | ED50, SRI + 5-HTP (25 mg/kg) [4]: 5.4 mg/kg

Fc1ccc([C@@H]2CCNC[C@H]2COc2ccc3c(c2)OCO3)cc1 [Paroxetine, (3S,4R)-3-((1,3-benzodioxol-5-yloxy)methyl)-4-(4-fluorophenyl)-piperidine]
ED50 [4]: 6.5 mg/kg | ED50, SRI + 5-HTP (25 mg/kg) [4]: 0.64 mg/kg | antiaggressive effect with a subeffective dose of L, 5-HTP [8]: greatly potentiated

CN(C)CCC[C@]1(c2ccc(F)cc2)OCc2cc(C#N)ccc21 [R-citalopram]
anxiolytic response to co-treatment with L, 5-HTP [7]: significant increase of ultrasonic vocalization

COc1ccc(C(CN(C)C)C2(O)CCCCC2)cc1 (centres unmarked) [Venlafaxine]
ED50 [4]: > 10 mg/kg | ED50, SRI + 5-HTP (25 mg/kg) [4]: 3.9 mg/kg
